The assay deals with T1, YqjM (Bacillus subtilis, UniProt P54550).
T1 construct: gene namA; wild type, purified recombinant enzyme; dimer, both protomers line the active site
T1 sequence (P54550 2-338): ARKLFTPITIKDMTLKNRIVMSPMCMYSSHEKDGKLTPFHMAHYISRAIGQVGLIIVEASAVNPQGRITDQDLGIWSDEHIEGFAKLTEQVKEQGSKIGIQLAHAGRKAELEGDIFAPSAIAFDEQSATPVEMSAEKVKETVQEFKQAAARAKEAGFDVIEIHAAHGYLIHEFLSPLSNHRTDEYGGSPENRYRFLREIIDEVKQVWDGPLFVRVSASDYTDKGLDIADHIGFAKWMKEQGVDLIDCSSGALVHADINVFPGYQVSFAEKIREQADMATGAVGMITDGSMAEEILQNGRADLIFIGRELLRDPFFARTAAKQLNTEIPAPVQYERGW
The assay is described as follows: stopped-flow oxidation of prereduced enzyme. The settings on record: anoxic; no kinetic saturation in the accessible range. The class given is biochemical.

The values below come from PMC11075021, “Asymmetric Synthesis of Chiral 2-Cyclohexenones with Quaternary Stereocenters via Ene-Reductase Catalyzed Desymmetrization of 2,5-Cyclohexadienones” (ACS Catalysis, 2024).

Regarding `C[C@@]1(c2ccccc2)C=CC(=O)CC1` [2a, cyclohexenone 2a], the “kobs at 800 μM” value is “Both compounds oxidized prereduced YqjM relatively slowly”.
